# Values of other authors, collected in patent US20220184026A1, “COMPOSITIONS OF FULVIC ACID AND CANNABINOID AND USES THEREOF” (Omni Bioceutical Innovations, Inc., priority 2019, published 2022).
# Read-outs that look alike come from different tables or passages of the source.
# Tested on: chronic wounds
# Set-up: key: N.S. = not statistically significant
substance,measurement,setting,value
interleukin-1B [IL-1B],Results,"Robson et al., pressure wounds (n=25), 0.01, 0.1, and 1 μg/cm^2 daily",N.S.
"epidermal growth factor (NSDSECPLSHDGYCLHDGVCMYIEALDKYACNCVVGYIGERCQYRDLKWWELR; not fully specified; Epidermal growth factor; UniProt P01133 971-1023, looked up) [EGF]",Results,"Falanga et al., venous wounds (n=44), 10 μg/mL twice per day",N.S.
granulocyte-macrophage colony-stimulating factor [GM-CSF],Results,"da Costa et al., venous + arterial wounds (n=25), 400 μg injected once around the wound",N.S.
human growth hormone [HGH],Results,"Rasmussen et al., venous wounds (n=37), 1 IU/cm^2 per week",N.S.
basic fibroblast growth factor [bFGF],Results,"Richard et al., diabetic wounds (n=17), 0.25 to 0.75 μg/cm^2 daily",N.S.
same,Results,"Robson et al., pressure wounds (n=50), 1, 5, and 10 μg/cm^2",N.S.
